PubChem BioAssay AID328 (DTP/NCI, 2004)
Toxic doses and inconclusive results are not listed.

System: BDF1 mice, P388 leukemia ip, median survival T/C
Test: NCI In Vivo Anticancer Drug Screen. Data for tumor model P388 Leukemia (intraperitoneal) in B6D2F1 (BDF1) mice
Conditions: endpoint: median survival time, higher = longer survival
Method in brief: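 Transplantable tumour in mice; compound vs vehicle dosing; survival scored; ratio of treated to control reported.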

[1] = dose: 50.0 mg/kg/injection, schedule: Q01DX009 (ip), vehicle: saline
[2] = dose: 100.0 mg/kg/injection, schedule: Q01DX009 (ip), vehicle: saline
[3] = dose: 200.0 mg/kg/injection, schedule: Q01DX009 (ip), vehicle: saline
[4] = dose: 400.0 mg/kg/injection, schedule: Q01DX009 (ip), vehicle: saline
[5] = dose: 50.0 mg/kg/injection, schedule: Q01DX009 (ip), vehicle: saline with Tween-80
[6] = dose: 100.0 mg/kg/injection, schedule: Q01DX009 (ip), vehicle: saline with Tween-80
[7] = dose: 200.0 mg/kg/injection, schedule: Q01DX009 (ip), vehicle: saline with Tween-80

For `CC1C=CC(=O)O1` (stereo not drawn), the T/C [1] was 105 % of control, the T/C [2] was 105 % of control and the T/C [3] was 112 % of control. For the same compound, the T/C [4] was 112 % of control.

`CC(=O)OC1(C)N=NC2(CCCCC2)O1` (stereo not drawn) was tested, and the T/C [5] was 102 % of control, the T/C [6] was 98 % of control and the T/C [7] was 112 % of control.

With `O=C(O)C1CC[N-]CC1.O=C(O)C1CC[N-]CC1.[Cl][Pt+2]([Cl])([Cl])[Cl]` the T/C (dose: 3.12 mg/kg/injection, schedule: Q01DX009 (ip), vehicle: saline) was 109 % of control, the T/C (dose: 6.25 mg/kg/injection, schedule: Q01DX009 (ip), vehicle: saline) was 90 % of control and the T/C (dose: 25.0 mg/kg/injection, schedule: Q01DX009 (ip), vehicle: saline) was 94 % of control. The T/C [1] was 100 % of control.

For `COC(OC)C1(O)CC(C(C)COC2CCCCO2)OC(=O)N1` (stereo not drawn), the T/C (dose: 50.0 mg/kg/injection, schedule: Q04DX003 (ip), vehicle: Klucel (hydroxypropylcellulose) (HPC)) was 102 % of control, the T/C (dose: 100.0 mg/kg/injection, schedule: Q04DX003 (ip), vehicle: Klucel (hydroxypropylcellulose) (HPC)) was 106 % of control and the T/C (dose: 200.0 mg/kg/injection, schedule: Q04DX003 (ip), vehicle: Klucel (hydroxypropylcellulose) (HPC)) was 106 % of control.

With `CC(=O)N1c2ccccc2Sc2ccc3ccc(C(=O)CCl)cc3c21` the T/C [6] was 153 % of control.

In the case of `COc1ccc(-c2c(CC(=O)O)c3cc(OC)ccc3n2Cc2ccc(Cl)cc2)cc1`, the T/C [6] is reported as 90 % of control, the T/C [7] is reported as 113 % of control and the T/C (dose: 400.0 mg/kg/injection, schedule: Q01DX009 (ip), vehicle: saline with Tween-80) is reported as 90 % of control.

For `O=C(O)C1CC[N-]CC1.O=C(O)C1CC[N-]CC1.[NH2-].[NH2-].[Pt+4]`, the T/C (dose: 50.0 mg/kg/injection, schedule: Q01DX009 (ip), vehicle: water) was 96 % of control, the T/C (dose: 100.0 mg/kg/injection, schedule: Q01DX009 (ip), vehicle: water) was 96 % of control and the T/C (dose: 400.0 mg/kg/injection, schedule: Q01DX009 (ip), vehicle: water) was 113 % of control.

`COc1ccc(CC#N)c(OCc2ccccc2)c1` was tested, and the T/C (dose: 12.5 mg/kg/injection, schedule: Q01DX009 (ip), vehicle: other) was 104 % of control, the T/C (dose: 25.0 mg/kg/injection, schedule: Q01DX009 (ip), vehicle: other) was 102 % of control and the T/C (dose: 50.0 mg/kg/injection, schedule: Q01DX009 (ip), vehicle: other) was 98 % of control. For the same compound, the T/C (dose: 100.0 mg/kg/injection, schedule: Q01DX009 (ip), vehicle: other) was 89 % of control and the T/C (dose: 200.0 mg/kg/injection, schedule: Q01DX009 (ip), vehicle: other) was 95 % of control.

For `COC(=O)C(CO)NC(=O)OCc1ccc(OC)cc1` (stereo not drawn), the T/C (dose: 12.5 mg/kg/injection, schedule: Q01DX009 (ip), vehicle: distilled water + Tween-80) was 87 % of control, the T/C (dose: 25.0 mg/kg/injection, schedule: Q01DX009 (ip), vehicle: distilled water + Tween-80) was 89 % of control and the T/C (dose: 50.0 mg/kg/injection, schedule: Q01DX009 (ip), vehicle: distilled water + Tween-80) was 104 % of control. For the same compound, the T/C (dose: 100.0 mg/kg/injection, schedule: Q01DX009 (ip), vehicle: distilled water + Tween-80) was 114 % of control.

With `c1csc(NC(Nc2nccs2)C2CCCCC2)n1` the T/C [5] was 101 % of control, the T/C [6] was 96 % of control and the T/C [7] was 96 % of control.

With `COc1cc(/C=C2\C(=O)NC(=O)N(c3ccccc3)C2=O)cc(OC)c1OC` the T/C (dose: 25.0 mg/kg/injection, schedule: Q01DX009 (ip), vehicle: saline with Tween-80) was 109 % of control, the T/C [5] was 118 % of control and the T/C (dose: 50.0 mg/kg/injection, schedule: Q04DX003 (ip), vehicle: saline with Tween-80) was 100 % of control. The T/C [6] was 118 % of control, the T/C (dose: 100.0 mg/kg/injection, schedule: Q04DX003 (ip), vehicle: saline with Tween-80) was 108 % of control and the T/C (dose: 200.0 mg/kg/injection, schedule: Q04DX003 (ip), vehicle: saline with Tween-80) was 112 % of control.

In the case of `O=c1cc(-c2ccccc2)nc2ccccn12`, the T/C (dose: 12.5 mg/kg/injection, schedule: Q01DX001 (ip), vehicle: saline with Tween-80) is reported as 109 % of control, the T/C (dose: 25.0 mg/kg/injection, schedule: Q01DX001 (ip), vehicle: saline with Tween-80) is reported as 104 % of control and the T/C (dose: 50.0 mg/kg/injection, schedule: Q01DX001 (ip), vehicle: saline with Tween-80) is reported as 123 % of control.

In the case of `C[C@]12CCCC[C@@H]1CC[C@@H]1[C@@H]2[C@@H](O)C[C@@]2(C)[C@H]1CC[C@]2(C)O`, the T/C [5] is reported as 104 % of control, the T/C [6] is reported as 95 % of control and the T/C [7] is reported as 100 % of control.

In the case of `CNc1nc2ncn(C)c2c(=O)[nH]1`, the T/C [2] is reported as 100 % of control, the T/C [3] is reported as 109 % of control and the T/C [4] is reported as 95 % of control.
